Assay results reported in ChEMBL document CHEMBL3112503, “New class of azaheptapyridine FPT inhibitors as potential cancer therapy agents” (Bioorg Med Chem Lett, 2014).
Activity calls are given as the source filed them. The rule behind the calls is not given here.

Assays:
[1] = target: Protein farnesyltransferase (Homo sapiens, UniProt P49354+P49356); experiment: Inhibition of FTase (unknown origin) assessed as transfer of [H3]farnesyl from [H3]farnesyl pyrophosphate to trichloroacetic acid-precipitable HaRas-CVLS; format: protein-complex assay
NIH-H = experiment: Inhibition of inhibit anchorage-independent growth of […] NIH-H cells in soft agar by colony forming assay; format: functional, cell-based
[2] = Oral bioavailability in monkey at 5 mg/kg; format: ADME, organism-based, Macaca mulatta; conditions: rhesus monkey, in vivo
[3] = AUC in dog at 25 mg/kg, po; format: ADME, organism-based, Canis lupus familiaris; set-up: dose 25 mg/kg, route oral; conditions: plasma
[4] = AUC in rat at 10 mg/kg, po; format: ADME, organism-based; set-up: dose 10 mg/kg, route oral; conditions: plasma
[5] = Cmax in dog at 25 mg/kg, po; format: ADME, organism-based, Canis lupus familiaris; set-up: dose 25 mg/kg, route oral; conditions: in vivo
Mus musculus [6] = experiment: Antitumor activity in wap-ras transgenic mouse assessed as tumor stasis at 10 mg/kg bid for 4 weeks; format: functional, organism-based; set-up: dose 10 mg/kg
Mus musculus [7] = experiment: Antitumor activity in wap-ras transgenic mouse assessed as tumor growth inhibition at 3 mg/kg bid for 4 weeks; format: functional, organism-based; set-up: dose 3 mg/kg
[8] = Cmax in mouse at 25 mg/kg, po; format: ADME, organism-based; set-up: dose 25 mg/kg, route oral; conditions: in vivo
[9] = AUC in monkey at 25 mg/kg, po; format: ADME, organism-based, Macaca mulatta; set-up: dose 25 mg/kg, route oral; conditions: rhesus monkey, plasma
[10] = Oral bioavailability in mouse at 25 mg/kg; format: ADME, organism-based; conditions: in vivo
Mus musculus [11] = experiment: Antitumor activity in wap-ras transgenic mouse assessed as tumor regression at 25 to 40 mg/kg bid for 4 weeks; format: functional, organism-based
[12] = AUC in mouse at 25 mg/kg, po; format: ADME, organism-based; set-up: dose 25 mg/kg, route oral; conditions: plasma
Mus musculus [13] = experiment: Antitumor activity in wap-ras transgenic mouse assessed as tumor growth inhibition and tumor regression administered bid for 4 weeks; format: functional, organism-based
Cytochrome P450 3A4 = Cytochrome P450 3A4 (Homo sapiens, UniProt P08684); experiment: Inhibition of CYP3A4 (unknown origin); format: ADME
[14] = Oral bioavailability in dog at 5 mg/kg; format: ADME, organism-based, Canis lupus familiaris; conditions: in vivo
[15] = Cmax in rat at 10 mg/kg, po; format: ADME, organism-based; set-up: dose 10 mg/kg, route oral; conditions: in vivo
[16] = Oral bioavailability in rat at 10 mg/kg; format: ADME, organism-based; conditions: in vivo
Mus musculus [17] = experiment: Toxicity in wap-ras transgenic mouse assessed as change in body weight at 3 to 40 mg/kg bid for 4 weeks; format: organism-based; set-up: dose 3-40 mg/kg; conditions: in vivo, 672 h
[18] = Cmax in monkey at 25 mg/kg, po; format: ADME, organism-based, Macaca mulatta; set-up: dose 25 mg/kg, route oral; conditions: rhesus monkey, in vivo
[19] = Ratio of IC50 for […] NIH-H cells to IC50 for FTase (unknown origin)
[20] = AUC (0 to 6 hrs) in rat at 10 mg/kg; format: ADME, organism-based; set-up: time < 6 hr, dose 10 mg/kg; conditions: plasma

Sequence of Cytochrome P450 3A4 (P08684 whole entry): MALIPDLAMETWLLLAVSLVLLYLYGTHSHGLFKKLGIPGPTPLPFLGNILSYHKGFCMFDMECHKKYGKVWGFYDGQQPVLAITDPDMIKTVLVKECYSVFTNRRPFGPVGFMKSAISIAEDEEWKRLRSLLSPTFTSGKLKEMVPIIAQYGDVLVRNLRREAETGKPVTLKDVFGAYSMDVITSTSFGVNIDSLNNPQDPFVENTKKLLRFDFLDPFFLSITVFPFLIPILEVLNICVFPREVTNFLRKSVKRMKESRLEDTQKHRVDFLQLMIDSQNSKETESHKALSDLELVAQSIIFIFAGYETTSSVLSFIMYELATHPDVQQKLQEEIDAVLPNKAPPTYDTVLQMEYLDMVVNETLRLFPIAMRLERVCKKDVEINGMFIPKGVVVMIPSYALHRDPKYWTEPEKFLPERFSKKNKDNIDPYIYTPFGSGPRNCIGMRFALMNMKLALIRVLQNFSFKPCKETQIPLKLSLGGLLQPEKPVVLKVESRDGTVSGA

| Compound | IC50 [1] [nM] | IC50 (NIH-H) [nM] | further results |
| --- | --- | --- | --- |
| CCC(O)(C1=Cc2cccnc2[C@@H](N2CCN(C(=O)OC(C)(C)C)CC2)c2ccc(Cl)cc21)c1cncn1C (mixture of isomers) | 5 | 50 |  |
| Cn1cncc1C(=O)[C@]12C[C@H]1c1cccnc1[C@@H](N1CCN(C(=O)OC(C)(C)C)CC1)c1ccc(Cl)cc12 | 3.2 | 6 |  |
| Cn1cncc1[C@@](C)(O)C1=Cc2cccnc2[C@@H](N2CCN(C(=O)Nc3ccc(C#N)cc3)CC2)c2ccc(Cl)cc21 | 0.8 | 2 |  |
| Cn1cncc1[C@@](C)(O)C1=Cc2cccnc2[C@@H](N2CCN(C(=O)NC(C)(C)C)CC2)c2ccc(Cl)cc21 | 0.9 | 5 |  |
| Cn1cncc1[C@H](O)C1=Cc2cccnc2[C@@H](N2CCN(C(=O)OC(C)(C)C)CC2)c2ccc(Cl)cc21 | 0.3 | 0.5 |  |
| Cn1cncc1C(=O)C1=Cc2cccnc2[C@@H](N2CCN(C(=O)OC(C)(C)C)CC2)c2ccc(Cl)cc21 | > 18 |  |  |
| Cn1cncc1C(C)(O)[C@@]12C[C@@H]1c1cccnc1[C@@H](N1CCN(C(=O)OC(C)(C)C)CC1)c1ccc(Cl)cc12 (stereo partly specified) | 1.9 | 60 | Ratio IC50 [19]: >30 |
| Cn1cncc1C(=O)[C@@]12C[C@@H]1c1cccnc1[C@@H](N1CCN(C(=O)OC(C)(C)C)CC1)c1ccc(Cl)cc12 | 3.2 | 8 |  |
| Cn1cncc1C(C)(O)[C@]12C[C@H]1c1cccnc1[C@@H](N1CCN(C(=O)OC(C)(C)C)CC1)c1ccc(Cl)cc12 (stereo partly specified) | > 18 | > 100 |  |
| Cn1cncc1[C@](C)(O)C1=Cc2cccnc2[C@@H](N2CCN(C(=O)OC3(C)CCCCC3)CC2)c2ccc(Cl)cc21 |  | 45 |  |
| Cn1cncc1[C@@H](O)C1=Cc2cccnc2[C@@H](N2CCN(C(=O)OC(C)(C)C)CC2)c2ccc(Cl)cc21 | 12 |  |  |
| Cn1cncc1[C@](C)(O)C1=Cc2cccnc2[C@@H](N2CCN(C(=O)Nc3ccc(C#N)cc3)CC2)c2ccc(Cl)cc21 | 1.8 | 4 |  |

Continued, in another order:

| IC50 [1] [nM] | Compound | IC50 (NIH-H) [nM] | further results |
| --- | --- | --- | --- |
| 1.8 | Cn1cncc1C(C)(O)C1=Cc2cccnc2[C@@H](N2CCN(C(=O)OC(C)(C)C)CC2)c2ccc(Cl)cc21 (mixture of isomers) | 10 |  |
| 1.4 | Cn1cncc1[C@@](C)(O)C1=Cc2cccnc2[C@@H](N2CCN(C(=O)OC(C)(C)C)CC2)c2ccc(Cl)cc21 | 1.3 | bioavailability [2]: 34%; AUC [3]: 1.8 µM·h; AUC [4]: 8.4 µM·h; Cmax [5]: 600 nM; Activity (Mus musculus [6]): Active; TGI (Mus musculus [7]): Active; Cmax [8]: 18000 nM; AUC [9]: 3.2 µM·h; bioavailability [10]: 34%; Activity (Mus musculus [11]): Active; AUC [12]: 82 µM·h; Activity (Mus musculus [13]): Dose-dependent effect; IC50 (Cytochrome P450 3A4): 300 nM; bioavailability [14]: 34%; Cmax [15]: 1500 nM; bioavailability [16]: 34%; Activity (Mus musculus [17]): Non-toxic; Cmax [18]: 700 nM |
| 1.7 | Cn1cncc1[C@@](C)(O)C1=Cc2cccnc2[C@@H](N2CCN(C(=O)OC3CCCCC3)CC2)c2ccc(Cl)cc21 | 3.5 |  |
| 0.1 | Cn1cncc1[C@@](C)(O)C1=Cc2cccnc2[C@@H](N2CCN(C(N)=O)CC2)c2ccc(Cl)cc21 | > 100 |  |
| 0.6 | Cn1cncc1[C@](C)(O)C1=Cc2cccnc2[C@@H](N2CCN(C(=O)OC3CCCC3)CC2)c2ccc(Cl)cc21 | 32 |  |
| 0.1 | Cn1cncc1[C@@](C)(O)C1=Cc2cccnc2[C@@H](N2CCN(C(=O)NC3CCCCC3)CC2)c2ccc(Cl)cc21 | 0.9 |  |
| 0.7 | Cn1cncc1[C@](C)(O)C1=Cc2cccnc2[C@@H](N2CCN(C(=O)NC(C)(C)C)CC2)c2ccc(Cl)cc21 | 37 |  |
| 1.4 | Cn1cncc1[C@](C)(O)C1=Cc2cccnc2[C@@H](N2CCN(C(=O)OC3CCCCC3)CC2)c2ccc(Cl)cc21 | 6.2 |  |
| 2.6 | Cn1cncc1[C@](C)(O)C1=Cc2cccnc2[C@@H](N2CCN(C(=O)OC(C)(C)C)CC2)c2ccc(Cl)cc21 | 30 | AUC(0-t) at 6 h [20]: 3.1 µM·h |
| 0.4 | Cn1cncc1[C@](C)(O)C1=Cc2cccnc2[C@@H](N2CCN(C(=O)NC3CCCCC3)CC2)c2ccc(Cl)cc21 | 1.7 |  |
| 0.2 | CC(C)OC(=O)N1CCN([C@H]2c3ccc(Cl)cc3C([C@](C)(O)c3cncn3C)=Cc3cccnc32)CC1 | 2 |  |
| > 20 | Cn1cncc1[C@](C)(O)C1=Cc2cccnc2[C@@H](N2CCN(C(N)=O)CC2)c2ccc(Cl)cc21 | > 100 |  |
| 0.6 | Cn1cncc1[C@@](C)(O)C1=Cc2cccnc2[C@@H](N2CCN(C(=O)OC3CCCC3)CC2)c2ccc(Cl)cc21 | 2 |  |
| 0.6 | CC(C)OC(=O)N1CCN([C@H]2c3ccc(Cl)cc3C([C@@](C)(O)c3cncn3C)=Cc3cccnc32)CC1 | 10 |  |
| 5.5 | Cn1cncc1[C@@](C)(O)C1=Cc2cccnc2[C@@H](N2CCN(C(=O)OC3(C)CCCCC3)CC2)c2ccc(Cl)cc21 | 2 |  |
